Reference: patent EP4685153A1 (priority 2023, dated 2024)
Residues, ends and D or L forms follow the SMILES beside them. *: point of attachment. Succinyl(4-O-cholesteryl) = CC(C)CCC[C@@H](C)[C@H]1CC[C@H]2[C@@H]3CC=C4C[C@@H](OC(=O)CCC(=O)*)CC[C@]4(C)[C@H]3CC[C@]12C

Columns and labels:
[1] = system: T20-resistant mutant strains (HIV-1 strain NL4-3); details: for IC50: T20-resistant mutant strains ( strain NL4-3, 48 h); for inhibitory activity against 12 drug-resistant mutant strains higher than that of the LP-98: versus LP-98
[2] = Circular dichroism of lipopeptide alone; type: physicochemical; details: CD, 10 µM in PBS pH 7.2
[3] = system: HIV-1 strain JRFL pseudovirus; details: for IC50: strain JRFL pseudovirus
[4] = system: HIV-1 envelope protein (Env); experiment: Env-mediated cell-cell fusion inhibition (DSP reporter system); details: for IC50: read-out: average IC50 value, membrane fusion of 12 viruses, average over Env of 12 representative pandemic HIV-1 strains; for inhibitory activity against membrane fusions of 12 viruses higher than that of the T20: versus T20
[5] = system: representative pandemic HIV-1 strain pseudoviruses; details: for IC50: representative pandemic strain pseudoviruses, 48 h; for inhibitory activity against 12 pseudoviruses higher than that of the T20: versus T20
[6] = system: HIV-1 strain NL4-3 pseudovirus; details: for IC50: strain NL4-3 pseudovirus
N44 = N44 (Human immunodeficiency virus type 1 group M subtype B, UniProt P04578); experiment: Circular dichroism of lipopeptide complex with target sequence N44; details: CD; for Tm value of the mixture with N44: [θ]222, 20-98 °C at 2 °C/min; for α-helix content of the mixture with N44: lipopeptide and N44 each 10 µM in PBS pH 7.2
[7] = system: HIV-1 strain SG3.1 living virus; details: for IC50: strain SG3.1 living virus
[8] = system: replicative HIV-1 strain JR-CSF; details: replicative strain JR-CSF, 48 h
[9] = LP-124 versus LP-122, LP-125 versus LP-123

N44, sequence (P04578 538-581): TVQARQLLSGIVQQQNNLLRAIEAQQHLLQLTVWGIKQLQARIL

| Molecule | IC50 [1] [nM] | inhibitory activity against 12 drug-resistant mutant strains higher than that of the LP-98 [1] [folds] | α-helix content, lipopeptide alone [2] [%] | IC50 [3] [nM] | IC50 [4] [nM] | inhibitory activity against membrane fusions of 12 viruses higher than that of the T20 [4] [folds] | IC50 [5] [nM] | inhibitory activity against 12 pseudoviruses higher than that of the T20 [5] [folds] | IC50 [6] [nM] | Tm value of the mixture with N44 (N44) [°C] | α-helix content of the mixture with N44 (N44) [%] | IC50 [7] [nM] | activity increased as compared to its template, JRFL pseudovirus [3, 9] [folds] | activity increased as compared to its template, NL4-3 pseudovirus [6, 9] | activity increased as compared to its template, SG3.1 living virus [7, 9] [folds] | IC50 [8] [nM] |
| --- | --- | --- | --- | --- | --- | --- | --- | --- | --- | --- | --- | --- | --- | --- | --- | --- |
| CC[C@H](C)[C@H](NC(=O)[C@H](CCCCN)NC(=O)[C@H](CCCCN)NC(=O)[C@H](CCC(=O)O)NC(=O)[C@H](Cc1c[nH]c2ccccc12)NC(=O)[C@H](CCC(=O)O)NC(=O)[C@H](CCC(=O)O)NC(=O)[C@H](Cc1c[nH]c2ccccc12)NC(=O)[C@@H](NC(C)=O)[C@@H](C)O)C(=O)N[C@@H](CCC(=O)O)C(=O)N[C@@H](CCC(=O)O)C(=O)N[C@@H](CC(C)C)C(=O)N[C@@H](CCC(=O)O)C(=O)N[C@@H](CCCCN)C(=O)N[C@@H](CCCCN)C(=O)N[C@H](C(=O)N[C@@H](CCC(=O)O)C(=O)N[C@@H](CCC(=O)O)C(=O)N[C@@H](CC(C)C)C(=O)N[C@@H](CC(C)C)C(=O)N[C@@H](CCCCN)C(=O)N[C@@H](CCCCN)C(=O)N[C@@H](C)C(=O)N[C@@H](CCC(=O)O)C(=O)N[C@@H](CCC(=O)O)C(=O)N[C@@H](CCC(N)=O)C(=O)N[C@@H](CCC(N)=O)C(=O)N[C@@H](CCCCN)C(=O)N[C@@H](CCCCN)C(=O)N[C@@H](CC(N)=O)C(=O)N[C@@H](CCC(=O)O)C(=O)N[C@@H](C)C(=O)N[C@@H](C)C(=O)N[C@@H](C)C(=O)N[C@@H](CCCCN)C(=O)N[C@@H](CCCCNC(=O)CCC(=O)O[C@H]1CC[C@@]2(C)C(=CC[C@H]3[C@@H]4CC[C@H]([C@H](C)CCCC(C)C)[C@@]4(C)CC[C@@H]32)C1)C(N)=O)[C@@H](C)CC [LP-123] (Ac-TWEEWEKKIEELEKKIEELLKKAEEQQKKNEAAAKK(Succinyl(4-O-cholesteryl))-NH2) | 0.0555 | 48 | 56 | 0.0146 | 0.024 | 466 | 0.0274 | 732 | 0.0181 | > 98 | 79 | 0.00368 | – | – | – | – |
| CC[C@H](C)[C@H](NC(=O)[C@H](CCCCN)NC(=O)[C@H](CCCCN)NC(=O)[C@H](CCC(=O)O)NC(=O)[C@H](Cc1ccc(O)cc1)NC(=O)[C@H](CCC(=O)O)NC(=O)[C@H](CCC(=O)O)NC(=O)[C@H](Cc1ccc(O)cc1)NC(=O)[C@@H](NC(C)=O)[C@@H](C)O)C(=O)N[C@@H](CCC(=O)O)C(=O)N[C@@H](CCC(=O)O)C(=O)N[C@@H](CC(C)C)C(=O)N[C@@H](CCC(=O)O)C(=O)N[C@@H](CCCCN)C(=O)N[C@@H](CCCCN)C(=O)N[C@H](C(=O)N[C@@H](CCC(=O)O)C(=O)N[C@@H](CCC(=O)O)C(=O)N[C@@H](CC(C)C)C(=O)N[C@@H](CC(C)C)C(=O)N[C@@H](CCCCN)C(=O)N[C@@H](CCCCN)C(=O)N[C@@H](C)C(=O)N[C@@H](CCC(=O)O)C(=O)N[C@@H](CCC(=O)O)C(=O)N[C@@H](CCC(N)=O)C(=O)N[C@@H](CCC(N)=O)C(=O)N[C@@H](CCCCN)C(=O)N[C@@H](CCCCN)C(=O)N[C@@H](CC(N)=O)C(=O)N[C@@H](CCC(=O)O)C(=O)N[C@@H](C)C(=O)N[C@@H](C)C(=O)N[C@@H](C)C(=O)N[C@@H](CCCCN)C(=O)N[C@@H](CCCCNC(=O)CCC(=O)O[C@H]1CC[C@@]2(C)C(=CC[C@H]3[C@@H]4CC[C@H]([C@H](C)CCCC(C)C)[C@@]4(C)CC[C@@H]32)C1)C(N)=O)[C@@H](C)CC [LP-125] (Ac-TYEEYEKKIEELEKKIEELLKKAEEQQKKNEAAAKK(Succinyl(4-O-cholesteryl))-NH2) | 0.00629 | 423 | 78 | 0.00578 | 0.0119 | 942 | 0.00422 | 4752 | 0.00343 | 91 | 89 | 0.00111 | ~3 | about 5 folds | ~3 | – |
| Enfuvirtide | – | – | – | – | 11.2 | – | 20.1 | – | – | – | – | 2.91 | – | – | – | 5.6 |
